Results on 23 compounds are retold here after US12077531B2, “Imidazopyridinone compound” (KISSEI PHARMACEUTICAL CO., LTD., priority 2018, dated 2024).

As usually defined, the IC50 is the concentration needed to halve the response being measured.

The target in the test is human PHD2184-418 (Homo sapiens (Human), UniProt Q9GZT9). In words: PHD2 inhibitory test (fluorescence polarization, binding between PHD2 and HIF-1α). Conditions: for IC50: human PHD2184-418, FITC-labeled HIF-1α556-574, 2 μM 2-oxoglutarate, 37° C. 60 minutes. The method, then: Test Example 1 PHD2 Inhibitory Test
(1) Expression and Preparation of Human PHD2184-418
Human PHD2184-418 containing amino acid residues 184 to 418 of the protein represented by CAC42509 (GenBank accession ID) was expressed and prepared by the following method.
An expression construct of human PHD2184-418 containing N-terminal histidine tag was introduced into pET-30a (+) vector, and the sequence was confirmed. This vector was introduced into BL21 (DE3) strain and cultured at 37° C. in LB medium containing antibiotics. After culturing, a cell lysis solution was added to the cells, and then the cells were disrupted by sonication. The disrupted suspension was centrifuged and the supernatant was purified by Ni column to give human PHD2184-418.
Human HIF-1α556-574 (FITC-labeled HIF-1α556-574), containing N-terminal FITC-Ahx, containing amino acid residues 556 to 574 (partial peptide) of HIF-1α was used as a substrate. Using FITC-labeled HIF-1α556-574, the competitive inhibition between 2-oxoglutarate and test compounds (PHD inhibitor) was evaluated based on the change in fluorescence polarization by the following method.
An enzyme (human PHD2184-418) and the substrate were diluted with an assay buffer (pH 7.4) containing 10 mM HEPES, 150 mM NaCl, 10 μM MnCl2-4H2O, 2 μM 2-oxoglutarate and 0.05% Tween-20. Test compounds were diluted with DMSO. Test compounds and human PHD2184-418 was added to the 384-well plate (Corning, black, opaque bottom) in advance. The reaction was started by the addition of FITC-labeled HIF-1α556-574. After incubating at 37° C. for 60 minutes, fluorescence polarization (excitation wavelength: 470 nm, fluorescence wavelength: 530 nm) was measured by PHERAstar FSX (BMG Labtech). Fluorescence polarization of each well was measured, and human PHD2 binding inhibitory activity of test compounds was calculated based on the value of test compound-free group.
A general note: Polarisation of emitted light reports the rotation of a fluorescent probe.

SMILES strings stand for the structures. Counter-ions that a name gives are not always drawn.

Sequence of human PHD2184-418 (Q9GZT9 184-418): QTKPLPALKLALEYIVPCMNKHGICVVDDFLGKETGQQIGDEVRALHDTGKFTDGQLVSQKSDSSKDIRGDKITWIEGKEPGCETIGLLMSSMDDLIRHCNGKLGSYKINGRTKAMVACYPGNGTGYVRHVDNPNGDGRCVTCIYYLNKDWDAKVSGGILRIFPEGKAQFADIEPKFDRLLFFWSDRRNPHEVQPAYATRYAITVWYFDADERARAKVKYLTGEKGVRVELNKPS

Compound `O=c1n(-c2ccc(-c3ccccc3)cc2)c2cccnc2n1[C@H]1CCN(Cc2ccccn2)C1` [Example 4, (S)-1-([1,1′-Biphenyl]-4-yl)-3-(1-(pyridin-2-ylmethyl)pyrrolidin-3-yl)-1,3-dihydro-2H-imidazo[4,5-b]pyridin-2-one] gave an IC50 of 3.45 µM. In other words, the single-digit micromolar range.

In the case of `Cn1c(C(=O)O)cnc1CN1CC[C@H](n2c(=O)n(-c3ccc(N4CCOCC4)cc3)c3cccnc32)C1` [Example 67, (S)-1-Methyl-2-((3-(1-(4-morpholinophenyl)-2-oxo-1,2-dihydro-3H-imidazo[4,5-b]pyridin-3-yl)pyrrolidin-1-yl)methyl)-1H-imidazole-5-carboxylic acid], the IC50 was found to be 0.52 µM. `Cc1cccnc1CN1CC[C@H](n2c(=O)n(-c3ccc(-c4ccc(OC(F)(F)F)cc4)cc3)c3cccnc32)C1` [Example 35, (S)-3-(1-((3-Methylpyridin-2-yl)methyl)pyrrolidin-3-yl)-1-(4′-(trifluoromethoxy)-[1,1′-biphenyl]-4-yl)-1,3-dihydro-2H-imidazo[4,5-b]pyridin-2-one]: the IC50 is 80.5 µM.

Turning to `Cn1ccnc1CN1CC[C@H](n2c(=O)n(-c3ccc(-c4ccc(O)c(C(=O)O)c4)cc3)c3cccnc32)C1` [Example 42, (S)-4-Hydroxy-4′-(3-(1-((1-methyl-1H-imidazol-2-yl)methyl)pyrrolidin-3-yl)-2-oxo-2,3-dihydro-1H-imidazo[4,5-b]pyridin-1-yl)-[1,1′-biphenyl]-3-carboxylic acid], the IC50 came out at 0.32 µM. Against the preceding compound, the IC50 is about 250-fold lower. On the same count and under the same terms, in the case of `Cc1cccnc1CN1CC[C@H](n2c(=O)n(-c3ccc(C(=O)NCC(=O)O)cc3)c3cccnc32)C1` [Example 75, (S)-(4-(3-(1-((3-Methylpyridin-2-yl)methyl)pyrrolidin-3-yl)-2-oxo-2,3-dihydro-1H-imidazo[4,5-b]pyridin-1-yl)benzoyl)glycine] it was 99.9 µM; in that of `Cn1c(C(=O)O)cnc1CN1CC[C@H](n2c(=O)n(-c3ccccc3)c3cccnc32)C1` [Example 87, (S)-1-Methyl-2-((3-(2-oxo-1-phenyl-1,2-dihydro-3H-imidazo[4,5-b]pyridin-3-yl)pyrrolidin-1-yl)methyl)-1H-imidazole-5-carboxylic acid], 3.99 µM. For `Cc1cccnc1CN1CC[C@H](n2c(=O)n(-c3ccc(-c4ccccc4C(F)(F)F)cc3)c3cccnc32)C1` [Example 33, (S)-3-(1-((3-Methylpyridin-2-yl)methyl)pyrrolidin-3-yl)-1-(2′-(trifluoromethyl)-[1,1′-biphenyl]-4-yl)-1,3-dihydro-2H-imidazo[4,5-b]pyridin-2-one], under “read-out: inhibition rate at the compound concentration of 100 μM (numerals with *), compound concentration 100 μM”, the inhibition at 100 µM is 41%.

`Cn1c(C(=O)O)cnc1CN1CC[C@H](n2c(=O)n(Cc3ccccc3)c3cccnc32)C1` [Example 71, (S)-2-((3-(1-Benzyl-2-oxo-1,2-dihydro-3H-imidazo[4,5-b]pyridin-3-yl)pyrrolidin-1-yl)methyl)-1-methyl-1H-imidazole-5-carboxylic acid] came in with an IC50 of 13.9 µM. This lies in the double-digit micromolar range. Regarding `Cn1c(C(=O)O)cnc1CN1CCC(C)(n2c(=O)n(-c3ccc(-c4ccccc4)cc3)c3cccnc32)CC1` [Example 23, 2-((4-(1-([1,1′-Biphenyl]-4-yl)-2-oxo-1,2-dihydro-3H-imidazo[4,5-b]pyridin-3-yl)-4-methylpiperidin-1-yl)methyl)-1-methyl-1H-imidazole-5-carboxylic acid], the IC50 came to 5.5 µM. `Cn1ccnc1CN1CC[C@H](n2c(=O)n(-c3ccc(-c4ccccc4)cc3)c3cccnc32)C1` [Example 2, (S)-1-([1,1′-biphenyl]-4-yl)-3-(1-((1-methyl-1H-imidazol-2-yl)methyl)pyrrolidin-3-yl)-1,3-dihydro-2H-imidazo[4,5-b]pyridin-2-one] had an IC50 of 0.79 µM.

`Cn1ccnc1CN1CC[C@H](n2c(=O)n(-c3ccccc3)c3cccnc32)C1` [Example 11, (S)-3-(1-((1-Methyl-1H-imidazol-2-yl)methyl)pyrrolidin-3-yl)-1-phenyl-1,3-dihydro-2H-imidazo[4,5-b]pyridin-2-one hydrochloride] came in with a half-maximal inhibitory concentration (IC50) of 85.4 µM. `O=c1n(-c2ccc(-c3ccccc3)cc2)c2cccnc2n1[C@H]1CCN(Cc2cc(O)ccn2)C1` [Example 10, (S)-1-([1,1′-Biphenyl]-4-yl)-3-(1-((4-hydroxypyridin-2-yl)methyl)pyrrolidin-3-yl)-1,3-dihydro-2H-imidazo[4,5-b]pyridin-2-one] yielded an IC50 of 5.49 µM. Against the preceding compound, the IC50 is about 16-fold lower.

As for `Cc1ccccc1-c1ccc(-n2c(=O)n([C@H]3CCN(Cc4nccn4C)C3)c3ncccc32)cc1` [Example 29, (S)-3-(1-((1-Methyl-1H-imidazol-2-yl)methyl)pyrrolidin-3-yl)-1-(2′-methyl-[1,1′-biphenyl]-4-yl)-1,3-dihydro-2H-imidazo[4,5-b]pyridin-2-one], the IC50 is 2.09 µM. Compared with the last compound, the IC50 is about 2.6-fold lower. The compound `Cn1c(C(=O)O)cnc1CN1CC[C@H](n2c(=O)n(-c3ccc(C#N)cc3)c3cccnc32)C1` [Example 64, (S)-2-((3-(1-(4-Cyanophenyl)-2-oxo-1,2-dihydro-3H-imidazo[4,5-b]pyridin-3-yl)pyrrolidin-1-yl)methyl)-1-methyl-1H-imidazole-5-carboxylic acid] yielded a 50% inhibitory concentration (IC50) of 7.89 µM. `CN(C)c1ccc(-n2c(=O)n([C@H]3CCN(Cc4ncc(C(=O)O)n4C)C3)c3ncccc32)cc1` [Example 55, (S)-2-((3-(1-(4-(Dimethylamino)phenyl)-2-oxo-1,2-dihydro-3H-imidazo[4,5-b]pyridin-3-yl)pyrrolidin-1-yl)methyl)-1-methyl-1H-imidazole-5-carboxylic acid]: the IC50 came out at 0.49 µM.

In turn, `Cn1c(C(=O)O)cnc1CN1CC[C@H](n2c(=O)n(-c3ccc(-c4ccccc4)cc3)c3cccnc32)C1` [Example 86, (S)-2-((3-(1-([1,1′-Biphenyl]-4-yl)-2-oxo-1,2-dihydro-3H-imidazo[4,5-b]pyridin-3-yl)pyrrolidin-1-yl)methyl)-1-methyl-1H-imidazole-5-carboxylic acid] registered an IC50 of 0.27 µM. For `O=c1n(-c2ccc(-c3ccccc3)cc2)c2cccnc2n1[C@H]1CCN(Cc2c[nH]cn2)C1` [Example 5, (S)-3-(1-((1H-Imidazol-4-yl)methyl)pyrrolidin-3-yl)-1-([1,1′-biphenyl]-4-yl)-1,3-dihydro-2H-imidazo[4,5-b]pyridin-2-one], the IC50 was 2.98 µM. Still for that read-out and setting: in the case of `Cn1ccnc1CN1CC[C@H](n2c(=O)n(-c3ccc(-c4ccccc4)cc3)c3ccc(C(=O)O)nc32)C1` [Example 20, (S)-1-([1,1′-Biphenyl]-4-yl)-3-(1-((1-methyl-1H-imidazol-2-yl)methyl)pyrrolidin-3-yl)-2-oxo-2,3-dihydro-1H-imidazo[4,5-b]pyridine-5-carboxylic acid] it was 6.71 µM. The compound `O=C(O)c1ccnc(CN2CC[C@H](n3c(=O)n(-c4ccc(-c5ccc(O)c(C(=O)O)c5)nc4)c4cccnc43)C2)c1` [Example 52, (S)-2-((3-(1-(6-(3-Carboxy-4-hydroxyphenyl)pyridin-3-yl)-2-oxo-1,2-dihydro-3H-imidazo[4,5-b]pyridin-3-yl)pyrrolidin-1-yl)methyl)isonicotinic acid] displayed an IC50 of 0.28 µM. Same read-out and setting: for `Cn1c(C(=O)O)cnc1CN1CC[C@H](n2c(=O)n(-c3ccc(Cc4ccccc4)cc3)c3cccnc32)C1` [Example 57, (S)-2-((3-(1-(4-Benzylphenyl)-2-oxo-1,2-dihydro-3H-imidazo[4,5-b]pyridin-3-yl)pyrrolidin-1-yl)methyl)-1-methyl-1H-imidazole-5-carboxylic acid] the value was 0.71 µM. `Cn1c(C(=O)O)cnc1CN1CC[C@H](n2c(=O)n(-c3ccc(OC(F)(F)F)cc3)c3cccnc32)C1` [Example 62, (S)-1-Methyl-2-((3-(2-oxo-1-(4-(trifluoromethoxy)phenyl)-1,2-dihydro-3H-imidazo[4,5-b]pyridin-3-yl)pyrrolidin-1-yl)methyl)-1H-imidazole-5-carboxylic acid] had an IC50 of 1.85 µM. Same read-out and setting: for `Cn1c(C(=O)O)cnc1CN1CC[C@H](n2c(=O)n(-c3ccc(C(F)(F)F)cc3)c3cccnc32)C1` [Example 63, (S)-1-Methyl-2-((3-(2-oxo-1-(4-(trifluoromethyl)phenyl)-1,2-dihydro-3H-imidazo[4,5-b]pyridin-3-yl)pyrrolidin-1-yl)methyl)-1H-imidazole-5-carboxylic acid] the value was 1.92 µM; for `Cn1c(C(=O)O)cnc1CN1CC[C@H](n2c(=O)n(C3CCC(c4ccccc4)CC3)c3cccnc32)C1` (stereo partly drawn) [Example 68, (S)-1-Methyl-2-((3-(2-oxo-1-(4-phenylcyclohexyl)-1,2-dihydro-3H-imidazo[4,5-b]pyridin-3-yl)pyrrolidin-1-yl)methyl)-1H-imidazole-5-carboxylic acid], 8.15 µM.
